Assay results taken from ChEMBL document CHEMBL4265935, “Synthesis and evaluation of novel arctigenin derivatives as potential anti-Toxoplasma gondii agents” (Eur J Med Chem, 2018).
Activity calls are given as the source filed them. The calls are words filed in the database; no cut-off is given here.

What was measured:
Toxoplasma gondii [1] = test: Antiparasitic activity against Toxoplasma gondii RH tachyzoites by MTT assay; assay type: functional, organism-based
HeLa = test: Cytotoxicity against human HeLa cells assessed as reduction in cell viability by MTT assay; assay type: cell-based
[2] = Selectivity index, ratio of IC50 for human HeLa cells to ratio of IC50 for Toxoplasma gondii RH tachyzoites; assay type: toxicity; conditions: HeLa cells versus Toxoplasma gondii RH tachyzoites, read-out: Ratio IC50
Toxoplasma gondii [3] = test: Antiparasitic activity against Toxoplasma gondii RH tachyzoites infected in human HeLa cells assessed as cell survival at 100 uM after 24 hrs by trypan blue assay (reference value: 20.8%); assay type: functional
Toxoplasma gondii [4] = test: Antiparasitic activity against Toxoplasma gondii RH infected in Kunming mouse assessed as inhibition of number of intraperitoneal tachyzoite in abdominal cavity at 100 mg/kg, po qd administered via gavage for 4 consecutive days measured on day 5 by light microscopic analysis relative to control; assay type: functional; conditions: 120 h
Toxoplasma gondii [5] = test: Antiparasitic activity against Toxoplasma gondii RH infected in Kunming mouse assessed as improvement of hepatomegaly at 100 mg/kg, po qd administered via gavage for 4 consecutive days measured on day 5; assay type: functional, organism-based
Toxoplasma gondii [6] = test: Antiparasitic activity against Toxoplasma gondii RH infected in Kunming mouse assessed as improvement of splenomegaly at 100 mg/kg, po qd administered via gavage for 4 consecutive days measured on day 5; assay type: functional, organism-based
Toxoplasma gondii [7] = test: Antiparasitic activity against Toxoplasma gondii RH infected in Kunming mouse assessed as reduction in serum ALT level at 100 mg/kg, po qd administered via gavage for 4 consecutive days measured on day 5; assay type: functional, organism-based
Toxoplasma gondii [8] = test: Antiparasitic activity against Toxoplasma gondii RH infected in Kunming mouse assessed as reduction in serum AST level at 100 mg/kg, po qd administered via gavage for 4 consecutive days measured on day 5; assay type: functional, organism-based
Toxoplasma gondii [9] = test: Antiparasitic activity against Toxoplasma gondii RH infected in Kunming mouse assessed as increase in GSH level in liver at 100 mg/kg, po qd administered via gavage for 4 consecutive days measured on day 5; assay type: functional, organism-based
Toxoplasma gondii [10] = test: Antiparasitic activity against Toxoplasma gondii RH infected in Kunming mouse assessed as decrease in GSH level in liver at 100 mg/kg, po qd administered via gavage for 4 consecutive days measured on day 5; assay type: functional, organism-based
Toxoplasma gondii [11] = test: Antiparasitic activity against Toxoplasma gondii RH infected in Kunming mouse assessed as increase in body weight at 100 mg/kg, po qd administered via gavage for several consecutive days; assay type: functional, organism-based
Toxoplasma gondii [12] = test: Antiparasitic activity against Toxoplasma gondii RH infected in Kunming mouse assessed as survival rate at 100 mg/kg, po qd administered via gavage for several consecutive days measured on day 20 relative to control; assay type: functional; conditions: 480 h
Toxoplasma gondii [13] = test: Antiparasitic activity against Toxoplasma gondii RH infected in Kunming mouse assessed as increase in survival rate by measuring mortality day at 100 mg/kg, po qd administered via gavage for several consecutive days measured on day 10 (reference value: 9 to 11 days); assay type: functional
Toxoplasma gondii [14] = test: Antiparasitic activity against Toxoplasma gondii RH tachyzoites infected in human HeLa cells assessed as increase in cell survival at 100 uM after 24 hrs by trypan blue assay relative to spiramycin; assay type: functional
Toxoplasma gondii [15] = test: Antiparasitic activity against Toxoplasma gondii RH infected in Kunming mouse assessed as increase in survival rate by measuring mortality day at 100 mg/kg, po qd administered via gavage for several consecutive days measured on day 12 (reference value: 9 to 11 days); assay type: functional
Toxoplasma gondii [16] = test: Antiparasitic activity against Toxoplasma gondii RH tachyzoites infected in human HeLa cells assessed as decrease in cell shrinkage at 100 uM after 24 hrs by inverted optical microscopic analysis; assay type: functional, organism-based
Toxoplasma gondii [17] = test: Antiparasitic activity against Toxoplasma gondii RH tachyzoites infected in human HeLa cells assessed as decrease in number of cell death at 100 uM after 24 hrs by inverted optical microscopic analysis; assay type: functional, organism-based
Toxoplasma gondii [18] = test: Antiparasitic activity against Toxoplasma gondii RH infected in Kunming mouse assessed as inhibition of number of intraperitoneal tachyzoite in abdominal cavity at 200 mg/kg, po qd administered via gavage for 4 consecutive days measured on day 5 by light microscopic analysis relative to control; assay type: functional

SMILES | IC50 (Toxoplasma gondii [1]) [µM] | IC50 (HeLa) [µM] | selectivity ratio [2] | further results
COc1ccc(C[C@H]2COC(=O)[C@@H]2Cc2ccc(OCC(=O)N3CCCCC3)c(OC)c2)cc1OC | 313 | 293 | 0.94 | –
COc1ccc(-n2cc(COc3ccc(C[C@H]4C(=O)OC[C@@H]4Cc4ccc(OC)c(OC)c4)cc3OC)nn2)cc1 | ≥ 600 | ≥ 600 | – | –
COC(=O)CNC(=O)CCC(=O)Oc1ccc(C[C@H]2C(=O)OC[C@@H]2Cc2ccc(OC)c(OC)c2)cc1OC | 157 | 179 | 1.14 | –
COc1ccc(C[C@H]2COC(=O)[C@@H]2Cc2ccc(OCc3cn(Cc4ccccc4F)nn3)c(OC)c2)cc1OC | 17.1 | ≥ 600 | > 35.1 | survival at 100 µM (Toxoplasma gondii [3]): 68.4%; inhibition in vivo at 100 mg/kg (Toxoplasma gondii [4]): 66.9%; Activity (Toxoplasma gondii [5]): Active; Activity (Toxoplasma gondii [6]): Active; Activity (Toxoplasma gondii [7]): inactive; Activity (Toxoplasma gondii [8]): Active; Activity (Toxoplasma gondii [9]): Active; Activity (Toxoplasma gondii [10]): Active; Activity (Toxoplasma gondii [11]): Active; survival at 100 mg/kg (Toxoplasma gondii [12]): 16%; mortality (Toxoplasma gondii [13]): 10 days; Activity (Toxoplasma gondii [14]): 28.4%
COC(=O)[C@@H]1CCCN1C(=O)CCC(=O)Oc1ccc(C[C@H]2C(=O)OC[C@@H]2Cc2ccc(OC)c(OC)c2)cc1OC | 43.9 | 145 | 3.31 | –
COC(=O)[C@@H](NC(=O)CCC(=O)Oc1ccc(C[C@H]2C(=O)OC[C@@H]2Cc2ccc(OC)c(OC)c2)cc1OC)C(C)C | 32.7 | 64 | 1.96 | –
COC(=O)CC[C@H](NC(=O)CCC(=O)Oc1ccc(C[C@H]2C(=O)OC[C@@H]2Cc2ccc(OC)c(OC)c2)cc1OC)C(=O)OC | 157 | 95.7 | 0.61 | –
COC(=O)[C@H](CC(C)C)NC(=O)CCC(=O)Oc1ccc(C[C@H]2C(=O)OC[C@@H]2Cc2ccc(OC)c(OC)c2)cc1OC | 62.5 | 53.2 | 0.85 | –
COc1ccc(C[C@H]2COC(=O)[C@@H]2Cc2ccc(OC(=O)CCC(=O)N3CCCCC3)c(OC)c2)cc1OC | 41 | 128 | 3.12 | –
COc1ccc(C[C@H]2COC(=O)[C@@H]2Cc2ccc(OCc3cn(-c4cccc(Cl)c4)nn3)c(OC)c2)cc1OC | 269 | 493 | 1.83 | –
COc1ccc(C[C@H]2COC(=O)[C@@H]2Cc2ccc(OCc3cn(-c4ccc(F)cc4)nn3)c(OC)c2)cc1OC | ≥ 600 | ≥ 600 | – | –
COc1ccc(C[C@H]2COC(=O)[C@@H]2Cc2ccc(OCc3cn(Cc4ccccc4)nn3)c(OC)c2)cc1OC | 651 | 346 | 0.53 | –
COc1ccc(C[C@H]2COC(=O)[C@@H]2Cc2ccc(OCC(=O)Nc3ccc(C)cc3)c(OC)c2)cc1OC | 322 | 228 | 0.71 | –
CCN(CC)C(=O)CCC(=O)Oc1ccc(C[C@H]2C(=O)OC[C@@H]2Cc2ccc(OC)c(OC)c2)cc1OC | 206 | 213 | 1.04 | –
COc1ccc(C[C@H]2COC(=O)[C@@H]2Cc2ccc(OCC(=O)N3CCOCC3)c(OC)c2)cc1OC | ≥ 600 | ≥ 600 | – | –
COc1ccc(C[C@H]2COC(=O)[C@@H]2Cc2ccc(OCc3cn(-c4ccc(C)cc4)nn3)c(OC)c2)cc1OC | 366 | ≥ 600 | > 1.64 | –

SMILES | IC50 (Toxoplasma gondii [1]) [µM] | IC50 (HeLa) [µM] | selectivity ratio [2] | further results
COC(=O)[C@@H](NC(=O)CCC(=O)Oc1ccc(C[C@H]2C(=O)OC[C@@H]2Cc2ccc(OC)c(OC)c2)cc1OC)c1ccccc1 | 84.4 | 78.1 | 0.92 | –
COc1ccc(C[C@H]2COC(=O)[C@@H]2Cc2ccc(OCc3cn(Cc4ccc(F)cc4)nn3)c(OC)c2)cc1OC | ≥ 600 | 198 | < 0.33 | –
COc1ccc(C[C@H]2COC(=O)[C@@H]2Cc2ccc(OCc3cn(-c4ccc(Br)cc4)nn3)c(OC)c2)cc1OC | 429 | 128 | 0.3 | –
COC(=O)[C@H](Cc1ccccc1)NC(=O)CCC(=O)Oc1ccc(C[C@H]2C(=O)OC[C@@H]2Cc2ccc(OC)c(OC)c2)cc1OC | ≥ 600 | ≥ 600 | – | –
COC(=O)[C@H](CCSC)NC(=O)CCC(=O)Oc1ccc(C[C@H]2C(=O)OC[C@@H]2Cc2ccc(OC)c(OC)c2)cc1OC | 165 | 199 | 1.2 | –
COc1ccc(C[C@H]2COC(=O)[C@@H]2Cc2ccc(OCc3cn(Cc4ccc(Cl)cc4)nn3)c(OC)c2)cc1OC | 251 | 242 | 0.97 | –
CCN(CC)C(=O)COc1ccc(C[C@H]2C(=O)OC[C@@H]2Cc2ccc(OC)c(OC)c2)cc1OC | 388 | 188 | 0.48 | –
COc1ccc(C[C@H]2COC(=O)[C@@H]2Cc2ccc(OCc3cn(Cc4ccccc4Cl)nn3)c(OC)c2)cc1OC | 24.3 | 84.5 | 3.48 | –
COc1ccc(C[C@H]2COC(=O)[C@@H]2Cc2ccc(OCc3cn(-c4ccc(Cl)cc4)nn3)c(OC)c2)cc1OC | 278 | 279 | 1 | –
CCN1CCN(C(=O)CCC(=O)Oc2ccc(C[C@H]3C(=O)OC[C@@H]3Cc3ccc(OC)c(OC)c3)cc2OC)CC1 | 94.4 | 190 | 2.01 | –
COc1ccc(C[C@H]2COC(=O)[C@@H]2Cc2ccc(OCC(=O)Nc3ccccc3)c(OC)c2)cc1OC | 40.6 | ≥ 600 | > 14.8 | survival at 100 µM (Toxoplasma gondii [3]): 69.7%; inhibition in vivo at 100 mg/kg (Toxoplasma gondii [4]): 82%; Activity (Toxoplasma gondii [5]): Active; Activity (Toxoplasma gondii [7]): inactive; Activity (Toxoplasma gondii [8]): Active; Activity (Toxoplasma gondii [9]): Active; mortality (Toxoplasma gondii [15]): 12 days; Activity (Toxoplasma gondii [14]): 29.7%
COC(=O)[C@@H](Cc1ccccc1)NC(=O)CCC(=O)Oc1ccc(C[C@H]2C(=O)OC[C@@H]2Cc2ccc(OC)c(OC)c2)cc1OC | 226 | 357 | 1.58 | –
COc1cc(C[C@H]2C(=O)OC[C@@H]2Cc2ccc(OC)c(OC)c2)ccc1O [ARCTIGENIN] | 586 | 573 | 0.98 | Activity (Toxoplasma gondii [16]): Active; Activity (Toxoplasma gondii [17]): Active; inhibition in vivo at 100 mg/kg (Toxoplasma gondii [4]): 75.9%; inhibition (Toxoplasma gondii [18]): Active; Activity (Toxoplasma gondii [5]): Active; Activity (Toxoplasma gondii [7]): inactive; Activity (Toxoplasma gondii [8]): Active; Activity (Toxoplasma gondii [10]): Active; Activity (Toxoplasma gondii [11]): Active; survival at 100 mg/kg (Toxoplasma gondii [12]): 16%; mortality (Toxoplasma gondii [13]): 10 days; Activity (Toxoplasma gondii [14]): 18.4%
COc1ccc(C[C@H]2COC(=O)[C@@H]2Cc2ccc(OCC(=O)N3CCCC3)c(OC)c2)cc1OC | 336 | ≥ 600 | > 1.78 | –
COc1ccc(C[C@H]2COC(=O)[C@@H]2Cc2ccc(OC(=O)CCC(=O)N3CCCC3)c(OC)c2)cc1OC | 115 | 201 | 1.74 | –
COc1ccc(C[C@H]2COC(=O)[C@@H]2Cc2ccc(OCc3cn(-c4ccccc4)nn3)c(OC)c2)cc1OC | 136 | 124 | 0.92 | –
